Data on 1 compound can be found in US11604184B2, “Juvenile atopic dermatitis models” (Laboratoires Expanscience, priority 2016, dated 2023).

In the experiment the test system is S. aureus biofilm. In words: Model for studying S. aureus biofilm on reconstructed epidermises (scanning electron microscopy). The experiment is classed as cell-based, Staphylococcus aureus (MRSA; ATCC 33591). The note with it: 24 hours after colonization. Here is the method: The test products (P1, P5 or P8) or 5% xylitol (positive control for inhibition of biofilm formation) were applied topically to reconstructed epidermises at a rate of 30 μL/epidermis, after undergoing slight surface abrasion.
After incubation overnight, the products were removed by rinsing and a 2·10^6 cfu inoculum of Staphylococcus aureus (methicillin-resistant S. aureus, MRSA; ATCC 33591) was applied to the surface of the reconstructed epidermises.
Biofilm formation and the effect of the product thereon were observed visually by scanning electron microscopy (SEM) 6 and 24 hours after colonization.

Take `OC[C@@H](O)[C@H](O)[C@@H](O)CO` [xylitol]: the “S. aureus biofilm formation on the surface of epidermises, observed by SEM (in words)” value is listed as “did not produce biofilm”.
